Experimental data: article PMC7026418, “The kinase polypharmacology landscape of clinical PARP inhibitors” (Scientific Reports, 2020)
Where two headings read alike, the source gives them in different places. One block for each molecule: values may come before it.

Tests used:
Assay in all cases: biochemical
Parameters in all cases: DiscoveRx KINOMEscan active site-directed competition binding; percent of control kinase bound to immobilised ligand
DRAK1 = biological target: T1, DRAK1 (Homo sapiens, UniProt Q9UEE5)
T1 construct: gene STK17A
T1 sequence (Q9UEE5 1-414): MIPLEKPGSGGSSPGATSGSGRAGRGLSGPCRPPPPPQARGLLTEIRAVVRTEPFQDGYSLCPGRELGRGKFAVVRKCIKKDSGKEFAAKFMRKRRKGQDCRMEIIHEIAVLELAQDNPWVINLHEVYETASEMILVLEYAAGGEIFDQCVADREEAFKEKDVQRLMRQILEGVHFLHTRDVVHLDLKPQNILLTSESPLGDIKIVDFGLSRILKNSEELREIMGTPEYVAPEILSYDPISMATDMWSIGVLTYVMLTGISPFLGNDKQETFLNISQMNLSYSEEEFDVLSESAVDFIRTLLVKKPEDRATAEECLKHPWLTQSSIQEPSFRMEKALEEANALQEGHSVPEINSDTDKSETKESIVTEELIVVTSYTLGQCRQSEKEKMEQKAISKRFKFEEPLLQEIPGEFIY

CDKL3 = CDKL3 (Homo sapiens, UniProt Q8IVW4)
CDKL3, sequence (Q8IVW4 whole entry): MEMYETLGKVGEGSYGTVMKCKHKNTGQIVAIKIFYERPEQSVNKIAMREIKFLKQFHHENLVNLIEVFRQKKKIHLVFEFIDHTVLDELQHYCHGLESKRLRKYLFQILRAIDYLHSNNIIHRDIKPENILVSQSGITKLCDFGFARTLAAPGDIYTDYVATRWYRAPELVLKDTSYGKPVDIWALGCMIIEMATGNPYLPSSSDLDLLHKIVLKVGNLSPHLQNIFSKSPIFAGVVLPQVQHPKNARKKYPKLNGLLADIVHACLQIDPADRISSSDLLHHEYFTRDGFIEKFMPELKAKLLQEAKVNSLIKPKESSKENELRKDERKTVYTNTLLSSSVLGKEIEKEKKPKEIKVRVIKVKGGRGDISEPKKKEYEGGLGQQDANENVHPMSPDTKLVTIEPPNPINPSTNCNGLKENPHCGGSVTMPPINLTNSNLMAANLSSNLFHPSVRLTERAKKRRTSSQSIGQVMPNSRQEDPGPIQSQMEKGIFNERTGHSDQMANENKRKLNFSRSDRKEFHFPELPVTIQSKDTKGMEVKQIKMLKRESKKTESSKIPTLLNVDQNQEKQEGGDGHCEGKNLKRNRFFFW

TBK1 = biological target: T2, TBK1 (Homo sapiens, UniProt Q9UHD2)
T2 sequence (Q9UHD2 1-729): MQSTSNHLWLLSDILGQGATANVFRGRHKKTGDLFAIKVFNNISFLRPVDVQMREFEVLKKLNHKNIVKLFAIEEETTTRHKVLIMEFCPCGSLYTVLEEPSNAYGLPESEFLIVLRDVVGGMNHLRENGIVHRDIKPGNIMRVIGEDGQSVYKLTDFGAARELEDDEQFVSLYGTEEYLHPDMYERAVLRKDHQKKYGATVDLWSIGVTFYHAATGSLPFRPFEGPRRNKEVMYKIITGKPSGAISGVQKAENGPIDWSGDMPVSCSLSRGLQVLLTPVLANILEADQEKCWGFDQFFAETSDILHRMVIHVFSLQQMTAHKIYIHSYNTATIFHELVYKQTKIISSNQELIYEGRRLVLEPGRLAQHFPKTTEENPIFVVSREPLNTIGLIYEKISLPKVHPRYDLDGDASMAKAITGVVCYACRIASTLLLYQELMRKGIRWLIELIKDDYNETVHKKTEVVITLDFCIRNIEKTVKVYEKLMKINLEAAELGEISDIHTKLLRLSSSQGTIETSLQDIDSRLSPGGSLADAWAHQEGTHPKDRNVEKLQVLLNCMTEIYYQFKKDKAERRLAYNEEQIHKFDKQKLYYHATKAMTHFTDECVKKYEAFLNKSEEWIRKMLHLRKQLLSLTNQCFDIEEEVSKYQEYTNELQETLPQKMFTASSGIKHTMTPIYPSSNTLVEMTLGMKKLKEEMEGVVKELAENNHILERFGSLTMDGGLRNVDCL

PIK3C2B = PIK3C2B (Homo sapiens, UniProt O00750)
PIK3C2B, sequence (O00750 whole entry): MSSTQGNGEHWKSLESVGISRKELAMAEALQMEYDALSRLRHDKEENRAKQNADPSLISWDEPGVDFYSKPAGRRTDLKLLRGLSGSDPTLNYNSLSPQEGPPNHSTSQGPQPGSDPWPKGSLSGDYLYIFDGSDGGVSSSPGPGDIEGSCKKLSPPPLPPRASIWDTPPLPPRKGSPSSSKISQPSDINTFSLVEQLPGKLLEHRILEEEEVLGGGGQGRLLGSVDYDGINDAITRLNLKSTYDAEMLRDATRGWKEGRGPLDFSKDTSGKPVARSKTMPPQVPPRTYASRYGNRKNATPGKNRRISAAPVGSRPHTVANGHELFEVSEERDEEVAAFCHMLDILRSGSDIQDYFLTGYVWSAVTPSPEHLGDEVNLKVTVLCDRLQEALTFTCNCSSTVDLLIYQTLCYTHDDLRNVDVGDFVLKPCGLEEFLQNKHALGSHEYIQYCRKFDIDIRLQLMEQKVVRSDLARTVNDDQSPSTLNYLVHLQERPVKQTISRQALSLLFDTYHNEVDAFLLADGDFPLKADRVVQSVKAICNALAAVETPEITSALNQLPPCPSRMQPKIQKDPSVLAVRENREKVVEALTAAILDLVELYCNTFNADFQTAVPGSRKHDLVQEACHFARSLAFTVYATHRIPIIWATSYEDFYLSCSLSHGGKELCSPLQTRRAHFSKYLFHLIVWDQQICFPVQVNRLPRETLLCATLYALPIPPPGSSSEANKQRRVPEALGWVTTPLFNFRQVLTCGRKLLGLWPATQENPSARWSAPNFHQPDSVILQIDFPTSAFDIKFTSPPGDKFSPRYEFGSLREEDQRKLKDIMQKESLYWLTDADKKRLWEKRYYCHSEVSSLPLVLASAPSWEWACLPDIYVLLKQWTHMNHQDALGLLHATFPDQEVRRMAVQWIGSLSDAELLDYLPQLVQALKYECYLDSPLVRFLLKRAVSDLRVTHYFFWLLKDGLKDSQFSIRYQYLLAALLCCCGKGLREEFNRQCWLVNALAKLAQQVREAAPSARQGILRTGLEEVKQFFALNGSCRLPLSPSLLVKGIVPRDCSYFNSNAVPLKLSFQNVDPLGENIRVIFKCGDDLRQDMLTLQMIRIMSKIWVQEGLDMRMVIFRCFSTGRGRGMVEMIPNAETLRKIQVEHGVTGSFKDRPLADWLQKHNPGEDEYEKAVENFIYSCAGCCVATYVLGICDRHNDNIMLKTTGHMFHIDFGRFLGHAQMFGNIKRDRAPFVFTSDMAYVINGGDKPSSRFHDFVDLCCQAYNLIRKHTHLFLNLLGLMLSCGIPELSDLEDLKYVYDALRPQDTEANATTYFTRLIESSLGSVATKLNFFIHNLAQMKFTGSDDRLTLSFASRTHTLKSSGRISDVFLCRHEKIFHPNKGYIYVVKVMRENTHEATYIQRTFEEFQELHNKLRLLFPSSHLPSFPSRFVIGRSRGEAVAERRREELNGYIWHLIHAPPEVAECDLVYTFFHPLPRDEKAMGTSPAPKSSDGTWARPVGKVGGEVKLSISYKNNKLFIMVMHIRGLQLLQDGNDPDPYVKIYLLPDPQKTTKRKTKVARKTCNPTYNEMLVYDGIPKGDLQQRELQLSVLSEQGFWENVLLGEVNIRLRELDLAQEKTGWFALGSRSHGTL

PIP5K2C = biological target: T3, PIP5K2C (Homo sapiens, UniProt Q8TBX8)
T3 construct: gene PIP4K2C
T3 sequence (Q8TBX8 1-421): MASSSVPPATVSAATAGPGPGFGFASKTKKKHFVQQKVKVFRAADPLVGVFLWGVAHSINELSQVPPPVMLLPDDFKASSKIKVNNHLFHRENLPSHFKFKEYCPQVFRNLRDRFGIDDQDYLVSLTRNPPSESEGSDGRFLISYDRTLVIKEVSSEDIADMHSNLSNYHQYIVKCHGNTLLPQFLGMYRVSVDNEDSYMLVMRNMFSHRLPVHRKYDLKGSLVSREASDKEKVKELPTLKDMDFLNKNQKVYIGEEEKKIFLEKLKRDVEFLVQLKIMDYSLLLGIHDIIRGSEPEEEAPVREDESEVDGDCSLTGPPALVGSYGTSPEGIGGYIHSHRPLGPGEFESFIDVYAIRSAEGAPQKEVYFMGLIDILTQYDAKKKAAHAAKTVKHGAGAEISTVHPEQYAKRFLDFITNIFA

MRCKA = biological target: T4, MRCKA (Homo sapiens, UniProt Q5VT25)
T4 construct: gene CDC42BPA
T4 sequence (Q5VT25 whole entry): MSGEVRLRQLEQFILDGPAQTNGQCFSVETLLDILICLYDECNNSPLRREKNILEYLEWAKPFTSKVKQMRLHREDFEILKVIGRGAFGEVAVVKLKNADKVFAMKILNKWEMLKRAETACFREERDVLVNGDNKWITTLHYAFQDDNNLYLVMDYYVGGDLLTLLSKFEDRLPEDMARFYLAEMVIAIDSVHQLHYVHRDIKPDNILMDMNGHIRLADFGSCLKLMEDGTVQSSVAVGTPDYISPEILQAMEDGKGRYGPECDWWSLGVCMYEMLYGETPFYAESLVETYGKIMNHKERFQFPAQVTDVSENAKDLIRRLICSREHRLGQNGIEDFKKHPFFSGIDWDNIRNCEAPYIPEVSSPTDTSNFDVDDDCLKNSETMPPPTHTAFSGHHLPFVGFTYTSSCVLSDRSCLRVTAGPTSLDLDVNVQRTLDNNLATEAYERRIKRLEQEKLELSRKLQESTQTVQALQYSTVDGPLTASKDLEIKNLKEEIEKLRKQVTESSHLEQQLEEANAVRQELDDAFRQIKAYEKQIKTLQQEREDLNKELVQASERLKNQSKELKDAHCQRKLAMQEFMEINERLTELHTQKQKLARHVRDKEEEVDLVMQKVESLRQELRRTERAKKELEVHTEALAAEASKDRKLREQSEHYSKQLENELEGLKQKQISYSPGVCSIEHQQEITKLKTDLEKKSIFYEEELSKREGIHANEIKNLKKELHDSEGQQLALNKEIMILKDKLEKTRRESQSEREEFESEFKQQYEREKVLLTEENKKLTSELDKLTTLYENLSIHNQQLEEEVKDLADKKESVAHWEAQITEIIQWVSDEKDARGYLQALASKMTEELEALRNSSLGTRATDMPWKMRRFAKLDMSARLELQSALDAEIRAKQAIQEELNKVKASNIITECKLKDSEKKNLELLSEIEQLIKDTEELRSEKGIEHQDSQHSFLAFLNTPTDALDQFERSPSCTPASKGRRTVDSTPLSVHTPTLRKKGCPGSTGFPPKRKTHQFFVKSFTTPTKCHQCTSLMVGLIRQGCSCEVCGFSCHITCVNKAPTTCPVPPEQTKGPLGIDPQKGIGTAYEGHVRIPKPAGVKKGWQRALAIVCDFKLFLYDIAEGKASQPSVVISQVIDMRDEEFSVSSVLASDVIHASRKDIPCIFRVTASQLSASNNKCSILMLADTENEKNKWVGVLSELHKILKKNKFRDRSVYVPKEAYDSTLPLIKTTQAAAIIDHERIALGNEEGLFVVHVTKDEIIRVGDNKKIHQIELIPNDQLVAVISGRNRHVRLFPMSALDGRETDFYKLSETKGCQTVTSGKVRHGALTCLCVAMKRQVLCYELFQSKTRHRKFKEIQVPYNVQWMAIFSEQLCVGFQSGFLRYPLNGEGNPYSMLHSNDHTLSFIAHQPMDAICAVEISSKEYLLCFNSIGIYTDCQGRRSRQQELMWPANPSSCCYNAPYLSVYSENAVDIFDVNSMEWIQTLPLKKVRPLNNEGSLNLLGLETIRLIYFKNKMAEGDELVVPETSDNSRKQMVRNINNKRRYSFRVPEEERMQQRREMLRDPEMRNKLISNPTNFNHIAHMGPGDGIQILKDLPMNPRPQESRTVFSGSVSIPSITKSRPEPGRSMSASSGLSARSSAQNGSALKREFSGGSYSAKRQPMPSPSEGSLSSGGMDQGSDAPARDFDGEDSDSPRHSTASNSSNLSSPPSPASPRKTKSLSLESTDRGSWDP

STK35 = STK35 (Homo sapiens, UniProt Q8TDR2)
STK35, sequence (Q8TDR2 whole entry): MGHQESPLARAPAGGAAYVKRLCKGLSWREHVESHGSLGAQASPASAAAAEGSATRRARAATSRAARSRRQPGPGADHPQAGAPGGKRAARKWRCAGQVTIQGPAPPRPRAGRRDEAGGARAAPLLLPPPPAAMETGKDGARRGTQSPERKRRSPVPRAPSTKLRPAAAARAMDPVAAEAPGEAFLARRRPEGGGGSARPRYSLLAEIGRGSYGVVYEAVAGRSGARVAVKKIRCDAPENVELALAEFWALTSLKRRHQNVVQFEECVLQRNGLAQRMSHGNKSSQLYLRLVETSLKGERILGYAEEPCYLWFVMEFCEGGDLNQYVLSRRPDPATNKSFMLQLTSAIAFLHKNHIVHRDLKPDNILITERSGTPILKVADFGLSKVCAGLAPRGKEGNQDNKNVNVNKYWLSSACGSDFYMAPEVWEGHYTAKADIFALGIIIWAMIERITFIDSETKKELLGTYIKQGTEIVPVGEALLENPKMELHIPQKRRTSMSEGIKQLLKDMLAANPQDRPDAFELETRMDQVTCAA

[1] = read-out: Niraparib (MK-4827) / %Ctrl @ 10000nM
[2] = read-out: Olaparib / %Ctrl @ 10000nM
[3] = read-out: Rucaparib / %Ctrl @ 10000nM, binding competition, % of control
[4] = read-out: Talazoparib (BMN 673) / %Ctrl @ 10000nM

Structure (SMILES): NC(=O)c1cccc2cn(-c3ccc([C@@H]4CCCNC4)cc3)nc12 [Niraparib]
percent of control binding at 10 µM (DRAK1; [1]): 26%
percent of control binding at 10 µM (CDKL3; [1]): 64%
percent of control binding at 10 µM (TBK1; [1]): 75%
percent of control binding at 10 µM (PIK3C2B; [1]): 100%
percent of control binding at 10 µM (PIP5K2C; [1]): 78%
percent of control binding at 10 µM (MRCKA; [1]): 100%
percent of control binding at 10 µM (STK35; [1]): 92%

percent of control binding at 10 µM (DRAK1; [2]): 95%
percent of control binding at 10 µM (CDKL3; [2]): 100%
percent of control binding at 10 µM (TBK1; [2]): 91%
percent of control binding at 10 µM (PIK3C2B; [2]): 100%
percent of control binding at 10 µM (PIP5K2C; [2]): 98%
percent of control binding at 10 µM (MRCKA; [2]): 98%
percent of control binding at 10 µM (STK35; [2]): 100%
Structure (SMILES): O=C(c1cc(Cc2n[nH]c(=O)c3ccccc23)ccc1F)N1CCN(C(=O)C2CC2)CC1 [Olaparib]

percent of control binding at 10 µM (DRAK1; [3]): 14%
percent of control binding at 10 µM (CDKL3; [3]): 100%
percent of control binding at 10 µM (TBK1; [3]): 87%
percent of control binding at 10 µM (PIK3C2B; [3]): 98%
percent of control binding at 10 µM (PIP5K2C; [3]): 83%
percent of control binding at 10 µM (MRCKA; [3]): 97%
percent of control binding at 10 µM (STK35; [3]): 92%
Structure (SMILES): CNCc1ccc(-c2[nH]c3cc(F)cc4c3c2CCNC4=O)cc1 [Rucaparib]

percent of control binding at 10 µM (DRAK1; [4]): 100%
percent of control binding at 10 µM (CDKL3; [4]): 97%
percent of control binding at 10 µM (TBK1; [4]): 44%
percent of control binding at 10 µM (PIK3C2B; [4]): 67%
percent of control binding at 10 µM (PIP5K2C; [4]): 100%
percent of control binding at 10 µM (MRCKA; [4]): 100%
percent of control binding at 10 µM (STK35; [4]): 100%
Structure (SMILES): Cn1ncnc1[C@H]1c2n[nH]c(=O)c3cc(F)cc(c23)N[C@@H]1c1ccc(F)cc1 [Talazoparib]
